Publication PMC9732821, “Neurotrophic Activity and Its Modulation by Zinc Ion of a Dimeric Peptide Mimicking the Brain-Derived Neurotrophic Factor N-Terminal Region” (ACS Chemical Neuroscience, 2022)

B1: brain-derived neurotrophic factor (protein, UniProt P23560 1-247, looked up)
chain: MTILFLTMVISYFGCMKAAPMKEANIRGQGGLAYPGVRTHGTLESVNGPKAGSRGLTSLADTFEHVIEELLDEDQKVRPNEENNKDADLYTSRVMLSSQVPLEPPLLFLLEEYKNYLDAANMSMRVRRHSDPARRGELSVCDSISEWVTAADKKTAVDMSGGTVTVLEKVPVSKGQLKQYFYETKCNPMGYTKEGCRGIDKRHWNSQCRTTQSYVRALTMDSKKRIGWRFIRIDTSCVCTLTIKRGR
modifications: full-length
notes: full-length human BDNF produced recombinantly in Escherichia coli

System: TrkB-EGFP
Assay: TrkB dimerization, number & brightness (N&B) in living SH-SY5Y cells
Format: cell-based, human
Conditions: 150 ng/mL BDNF or 10 μM d-bdnf, within 30 min; f-EGFP monomeric reference; two independent experiments
Procedure: Figure 1 Activation of the TrkB receptor by BDNF and its mimetic peptide ligands. (A) Schematic picture of the human TrkB receptor fused to the EGFP construct (hTrkB-EGFP); recombinant human mature BDNF (hBDNF); monomeric peptide, m-bdnf; dimeric peptide, d-bdnf; scrambled s-bdnf. (B) WB showing Tyr phosphorylation (p-Tyr, top) and total TrkB levels (bottom) in SH-SY5Y cells transfected with hTrkB-EGFP in the absence (ctrl) or presence of 10 min stimulation with 150 ng/mL BDNF or 10 μM m-bdnf, d-bdnf, or s-bdnf. Samples were immunoprecipitated (IP) with the anti-GFP antibody before WB. […] (C) Scatter dot plot of ERK (left) and AKT (right) phosphorylation levels detected in differentiated SH-SY5Y cells, after stimulation with the same treatments as in (B). […] (G) Bar graph of mean ± SD ‘B-1’ values retrieved from N&B analysis for all the different conditions measured. […]
The same TrkB-GFP expressing SH-SY5Y cells were used to deeper investigate the mechanism of TrkB activation induced by d-bdnf, using an advanced imaging approach in living cells. We exploited a fluorescence correlation technique, which directly correlates the brightness of each fluorescent pixel of the image to the number of TrkB molecules averagely populating that pixel during the observation time (number & brightness technique—N&B[34],[35]). […]

Molecule	TrkB monomer/dimer state at plasma membrane
HSDPARRGELSVC-C-VSLEGRRAPDSH (disulfide) [d-bdnf]	shift toward the dimeric form
B1	shift toward the dimeric form
